Assay: xn = mol fraction of the nth substance listed
Details: Gas, Loschmidt diffusion cell combined with holoholographic interferometry

[Ne] [neon] + [Ar]
binary diffusion coefficient [m2/s]
Details	100 kPa	200 kPa	500 kPa	1000 kPa
293.15 K, x2 = 0.1	3.14e-10	1.57e-10	6.34e-11	3.1e-11
293.15 K, x2 = 0.12	3.14e-10	1.57e-10	6.32e-11	3.1e-11
293.15 K, x2 = 0.14	3.13e-10	1.57e-10	6.31e-11	3.1e-11
293.15 K, x2 = 0.16	3.13e-10	1.57e-10	6.3e-11	3.09e-11
293.15 K, x2 = 0.18	3.12e-10	1.56e-10	6.29e-11	3.09e-11
293.15 K, x2 = 0.2	3.11e-10	1.56e-10	6.28e-11	3.08e-11
293.15 K, x2 = 0.22	3.11e-10	1.56e-10	6.27e-11	3.08e-11
293.15 K, x2 = 0.24	3.1e-10	1.56e-10	6.27e-11	3.07e-11
293.15 K, x2 = 0.26	3.1e-10	1.56e-10	6.26e-11	3.07e-11
293.15 K, x2 = 0.28	3.1e-10	1.56e-10	6.25e-11	3.06e-11
293.15 K, x2 = 0.3	3.09e-10	1.56e-10	6.24e-11	3.06e-11
293.15 K, x2 = 0.32	3.08e-10	1.55e-10	6.23e-11	3.05e-11
293.15 K, x2 = 0.34	3.08e-10	1.55e-10	6.22e-11	3.04e-11
293.15 K, x2 = 0.36	3.07e-10	1.55e-10	6.21e-11	3.03e-11
293.15 K, x2 = 0.38	3.08e-10	1.54e-10	6.2e-11	3.02e-11
293.15 K, x2 = 0.4	3.07e-10	1.54e-10	6.19e-11	3.01e-11
293.15 K, x2 = 0.6	3.1e-10	1.56e-10	6.31e-11	3.13e-11
293.15 K, x2 = 0.62	3.09e-10	1.56e-10	6.29e-11	3.13e-11
293.15 K, x2 = 0.64	3.09e-10	1.56e-10	6.28e-11	3.13e-11
293.15 K, x2 = 0.66	3.09e-10	1.56e-10	6.28e-11	3.12e-11
293.15 K, x2 = 0.68	3.09e-10	1.56e-10	6.28e-11	3.12e-11
293.15 K, x2 = 0.7	3.09e-10	1.56e-10	6.28e-11	3.12e-11
293.15 K, x2 = 0.72	3.1e-10	1.56e-10	6.28e-11	3.12e-11
293.15 K, x2 = 0.74	3.1e-10	1.56e-10	6.28e-11	3.12e-11
293.15 K, x2 = 0.76	3.1e-10	1.56e-10	6.28e-11	3.13e-11
293.15 K, x2 = 0.78	3.1e-10	1.57e-10	6.28e-11	3.13e-11
293.15 K, x2 = 0.8	3.1e-10	1.57e-10	6.28e-11	3.13e-11
293.15 K, x2 = 0.82	3.1e-10	1.57e-10	6.29e-11	3.13e-11
293.15 K, x2 = 0.84	3.11e-10	1.57e-10	6.29e-11	3.13e-11
293.15 K, x2 = 0.86	3.11e-10	1.57e-10	6.29e-11	3.13e-11
293.15 K, x2 = 0.88	3.11e-10	1.57e-10	6.3e-11	3.14e-11
293.15 K, x2 = 0.9	3.11e-10	1.57e-10	6.3e-11	3.14e-11
313.15 K, x2 = 0.1	3.56e-10	1.78e-10	7.02e-11	3.5e-11
313.15 K, x2 = 0.12	3.54e-10	1.77e-10	7e-11	3.49e-11
313.15 K, x2 = 0.14	3.53e-10	1.77e-10	6.99e-11	3.49e-11
313.15 K, x2 = 0.16	3.52e-10	1.77e-10	6.98e-11	3.48e-11
313.15 K, x2 = 0.18	3.52e-10	1.76e-10	6.97e-11	3.47e-11
313.15 K, x2 = 0.2	3.51e-10	1.76e-10	6.96e-11	3.47e-11
313.15 K, x2 = 0.22	3.51e-10	1.76e-10	6.95e-11	3.46e-11
313.15 K, x2 = 0.24	3.49e-10	1.75e-10	6.94e-11	3.45e-11
313.15 K, x2 = 0.26	3.49e-10	1.75e-10	6.92e-11	3.44e-11
313.15 K, x2 = 0.28	3.48e-10	1.75e-10	6.91e-11	3.44e-11
313.15 K, x2 = 0.3	3.47e-10	1.74e-10	6.89e-11	3.42e-11
313.15 K, x2 = 0.32	3.47e-10	1.74e-10	6.88e-11	3.41e-11
313.15 K, x2 = 0.34	3.46e-10	1.74e-10	6.86e-11	3.4e-11
313.15 K, x2 = 0.36	3.46e-10	1.74e-10	6.84e-11	3.39e-11
313.15 K, x2 = 0.38	3.45e-10	1.73e-10	6.82e-11	3.37e-11
313.15 K, x2 = 0.4	3.44e-10	1.73e-10	6.79e-11	3.35e-11
313.15 K, x2 = 0.6	3.52e-10	1.75e-10	7.09e-11	3.52e-11
313.15 K, x2 = 0.62	3.51e-10	1.75e-10	7.08e-11	3.51e-11
313.15 K, x2 = 0.64	3.51e-10	1.75e-10	7.07e-11	3.5e-11
313.15 K, x2 = 0.66	3.5e-10	1.75e-10	7.06e-11	3.5e-11
313.15 K, x2 = 0.68	3.5e-10	1.75e-10	7.06e-11	3.5e-11
313.15 K, x2 = 0.7	3.5e-10	1.75e-10	7.05e-11	3.5e-11
313.15 K, x2 = 0.72	3.5e-10	1.75e-10	7.05e-11	3.5e-11
313.15 K, x2 = 0.74	3.49e-10	1.75e-10	7.05e-11	3.5e-11
313.15 K, x2 = 0.76	3.49e-10	1.75e-10	7.06e-11	3.5e-11
313.15 K, x2 = 0.78	3.49e-10	1.75e-10	7.06e-11	3.5e-11
313.15 K, x2 = 0.8	3.49e-10	1.75e-10	7.06e-11	3.5e-11
313.15 K, x2 = 0.82	3.49e-10	1.75e-10	7.06e-11	3.5e-11
313.15 K, x2 = 0.84	3.49e-10	1.76e-10	7.07e-11	3.5e-11
313.15 K, x2 = 0.86	3.5e-10	1.76e-10	7.07e-11	3.5e-11
313.15 K, x2 = 0.88	3.51e-10	1.76e-10	7.07e-11	3.51e-11
313.15 K, x2 = 0.9	3.51e-10	1.76e-10	7.08e-11	3.51e-11
333.15 K, x2 = 0.1	3.99e-10	1.97e-10	7.82e-11	3.91e-11
333.15 K, x2 = 0.12	3.97e-10	1.97e-10	7.8e-11	3.9e-11
333.15 K, x2 = 0.14	3.95e-10	1.96e-10	7.79e-11	3.89e-11
333.15 K, x2 = 0.16	3.94e-10	1.96e-10	7.77e-11	3.88e-11
333.15 K, x2 = 0.18	3.93e-10	1.95e-10	7.76e-11	3.87e-11
333.15 K, x2 = 0.2	3.91e-10	1.95e-10	7.74e-11	3.86e-11
333.15 K, x2 = 0.22	3.91e-10	1.95e-10	7.72e-11	3.86e-11
333.15 K, x2 = 0.24	3.89e-10	1.94e-10	7.7e-11	3.85e-11
333.15 K, x2 = 0.26	3.89e-10	1.94e-10	7.69e-11	3.84e-11
333.15 K, x2 = 0.28	3.87e-10	1.93e-10	7.67e-11	3.83e-11
333.15 K, x2 = 0.3	3.86e-10	1.93e-10	7.65e-11	3.82e-11
333.15 K, x2 = 0.32	3.86e-10	1.93e-10	7.63e-11	3.81e-11
333.15 K, x2 = 0.34	3.84e-10	1.92e-10	7.6e-11	3.8e-11
333.15 K, x2 = 0.36	3.83e-10	1.91e-10	7.57e-11	3.79e-11
333.15 K, x2 = 0.38	3.83e-10	1.91e-10	7.53e-11	3.77e-11
333.15 K, x2 = 0.4	3.8e-10	1.9e-10	7.48e-11	3.75e-11
333.15 K, x2 = 0.6	3.87e-10	1.94e-10	7.82e-11	3.91e-11
333.15 K, x2 = 0.62	3.85e-10	1.94e-10	7.81e-11	3.91e-11
333.15 K, x2 = 0.64	3.84e-10	1.94e-10	7.8e-11	3.9e-11
333.15 K, x2 = 0.66	3.85e-10	1.94e-10	7.8e-11	3.9e-11
333.15 K, x2 = 0.68	3.85e-10	1.94e-10	7.79e-11	3.9e-11
333.15 K, x2 = 0.7	3.85e-10	1.94e-10	7.79e-11	3.89e-11
333.15 K, x2 = 0.72	3.86e-10	1.93e-10	7.79e-11	3.89e-11
333.15 K, x2 = 0.74	3.85e-10	1.94e-10	7.8e-11	3.89e-11
333.15 K, x2 = 0.76	3.86e-10	1.94e-10	7.8e-11	3.9e-11
333.15 K, x2 = 0.78	3.86e-10	1.94e-10	7.8e-11	3.9e-11
333.15 K, x2 = 0.8	3.86e-10	1.94e-10	7.8e-11	3.9e-11
333.15 K, x2 = 0.82	3.86e-10	1.94e-10	7.81e-11	3.9e-11
333.15 K, x2 = 0.84	3.86e-10	1.94e-10	7.81e-11	3.9e-11
333.15 K, x2 = 0.86	3.86e-10	1.94e-10	7.82e-11	3.9e-11
333.15 K, x2 = 0.88	3.86e-10	1.94e-10	7.82e-11	3.91e-11
333.15 K, x2 = 0.9	3.86e-10	1.94e-10	7.82e-11	3.91e-11

Source: the NIST ThermoML archive (doi:10.1007/s10765-012-1352-4)
